This is an account of results in US12570618B2, “Compound, production method therefor, and pharmaceutical composition” (TOKYO UNIVERSITY OF SCIENCE FOUNDATION, priority 2021, dated 2026).

The test system of experiment [1] is MCF-7 (Breast adenocarcinoma cell line). Briefly: cell proliferation inhibitory activity, WST-8 (Test Example 2). It counts as cell-based. Particulars: Homo sapiens, MCF7, 48 h, MCF-7, 2 days with compound. An excerpt: (§1) Compounds RS1 to RS7 obtained in Synthesis Examples 1 to 7, and M-COPA synthesized in the same manner as in Synthesis Example 1 in Patent Document 1 were examined for cell proliferation inhibitory activity against human cultured cancer cells. The cancer cells used were eight human cancer cell lines (one skin cancer cell line, one ovarian cancer cell line, one prostate cancer cell line, two lung adenocarcinoma cell lines, one colorectal cancer cell line, two breast adenocarcinoma cell lines). The cancer cells of each type were seeded on a 96-well plate and cultured for 2 days, and cultured for 2 days with addition of serially diluted products of the compounds, and the cell proliferation was then measured by colorimetry with a water-soluble tetrazolium salt (WST-8). Thereafter, 50% cell proliferation inhibitory concentrations (GI50) were calculated from the cell proliferation curves.
On the technique in general: Tetrazolium assays rely on reduction of a dye to a coloured formazan, in cell work by metabolically active cells.

The test system of experiment [2] is DU-145 (Prostate cancer cell line). Described as above. It counts as cell-based. Particulars: Homo sapiens, 48 h, DU-145, 2 days with compound.
Excerpt: as §1

For experiment [3], the system named is SK-OV3 (Ovarian cancer cell line). The experiment is described as above. It counts as cell-based. Conditions: Homo sapiens, SK-OV-3, 48 h, SK-OV3, 2 days with compound.
Excerpt: as §1

In experiment [4] the test system is H2228 (Lung adenocarcinoma cell line). The experiment is described as above. It counts as cell-based. Particulars: Homo sapiens, NCI-H2228, 48 h; H2228, 2 days with compound, WST-8, Table 2.
Excerpt: as §1

Experiment [5] relates to Hs578t (Breast adenocarcinoma cell line). The experiment is described as above. It counts as cell-based. Conditions: Homo sapiens, Hs-578T, 48 h, 2 days with compound.
Excerpt: as §1

For experiment [6], the system named is Hs925t (Skin cancer cell line). The description is as above. It counts as cell-based. Conditions: Homo sapiens, 48 h, 2 days with compound.
Excerpt: as §1

The test system of experiment [7] is H1650 (Lung adenocarcinoma cell line). The experiment is described as above. It counts as cell-based. Conditions: Homo sapiens, NCI-H1650, 48 h; H1650, 2 days with compound, WST-8, Table 2.
Excerpt: as §1

The test system of experiment [8] is DLD-1 (Colorectal cancer cell line). The description is as above. It counts as cell-based. Particulars: Homo sapiens, 48 h, DLD-1, 2 days with compound.
Excerpt: as §1

A further experiment concerns HMC-1.2 cells. Briefly: cell proliferation inhibitory activity, ATP production (Test Example 1). It counts as cell-based, human. Conditions: for IC50: Homo sapiens, 48 h, HMC-1.2 cells (KIT^V560G/D816V, imatinib-resistant), cultured 2 days with compound, ATP production, n=3; for inhibition of cell proliferation (in words): HMC-1.2 cells, FIG. 3. The text has this:
(§2) Compounds RS1, RS2, and RS5 obtained in Synthesis Examples 1, 2, and 5, and M-COPA synthesized in the same manner as in Synthesis Example 1 in Patent Document 1 were examined for cell proliferation inhibitory activity against human cultured cancer cells with KIT tyrosine kinase mutation. The human cultured cancer cells used were GIST-T1 cells (KIT^Δ560-578. imatinib-sensitive) and GIST-R9 cells (KIV^Δ560-578/D820V, imatinib-resistant) as gastrointestinal stromal tumor cell lines, and HMC-1.2 cells (KIT^V560G/D816V, imatinib-resistant) as a mast cell leukemia cell line. The cancer cells of each type were seeded on a 96-well plate and cultured overnight, and cultured for 2 days with addition of serially diluted products of the compounds, and the cell proliferation was then measured by quantifying the ATP production (n=3). FIG. 1 to FIG. 3 show the cell proliferation curves for the GIST-T1 cells, GIST-R9 cells, and HMC-1.2 cells.

For another experiment, the system named is GIST-R9 cells. Described as above. It counts as cell-based, human. Conditions: for IC50: Homo sapiens, 48 h, GIST-R9 cells (KIV^Δ560-578/D820V, imatinib-resistant), cultured 2 days with compound, ATP production, n=3; for inhibition of cell proliferation (in words): GIST-R9 cells, FIG. 2.
Excerpt: as §2

The next experiment relates to GIST-T1 cells. The experiment is described as above. It counts as cell-based, human. Conditions: for IC50: Homo sapiens, GISTT1, 48 h, GIST-T1 cells (KIT^Δ560-578, imatinib-sensitive), cultured 2 days with compound, ATP production, n=3; for inhibition of cell proliferation (in words): GIST-T1 cells, FIG. 1.
Excerpt: as §2

For orientation: GI50 means the concentration that inhibits growth by half. With `C[C@H]1[C@@H]2[C@@H](/C=C/C=C(\Br)C(=O)NCc3cccnc3)[C@@H](C)C=C[C@H]2CC[C@@H]1O` [RS7, (2Z,4E)-2-Bromo-5-((1′S,2′S,4′aR,7′S,8′S,8′aS)-7′-hydroxy-2′,8′-dimethyl-1′,2′,4′a,5′,6′,7′,8′,8′a-octahydronaphthalen-1′-yl)-N-(pyridin-3″-ylmethyl)penta-2,4-dienamide], the GI50 in experiment [1] amounted to 1 µM; in [2], 0.3 µM; in experiment [3], 0.05 µM; in experiment [4] it was 1 µM; in experiment [5], 0.01 µM; in experiment [6], 0.03 µM. Also, the 50% growth inhibitory concentration (GI50) was determined as 0.1 µM in experiment [7] and 0.03 µM in experiment [8].
As usually defined, the IC50 is the concentration that inhibits the measured activity by half. As to `C/C(=C\C=C\[C@@H]1[C@H]2[C@H](C)[C@@H](O)[C@H](C)C[C@@H]2C=C[C@@H]1C)C(=O)NCc1cccnc1` [M-COPA, 2-methylcoprophilinamide, reference compound], the figures for the IC50 with HMC-1.2 cells, in the experiment on GIST-R9 cells and in the experiment with GIST-T1 cells were 0.086 ± 0.009 µM, 0.528 ± 0.059 µM and 0.347 ± 0.021 µM, respectively. Besides, the GI50 in [1] amounted to 0.35 µM; in [2], 0.1 µM; in experiment [3], 0.03 µM; in experiment [4] it was 0.04 µM; in [5] it was 0.04 µM; in [6] it was 0.05 µM. In addition, the figures for the concentration for 50% growth inhibition (GI50) in experiment [7] and in [8] were 0.08 µM and 0.03 µM, respectively.
As to `C[C@@H]1[C@@H](O)[C@H](C)C[C@@H]2C=C[C@H](C)[C@H](/C=C/C=C(\Br)C(=O)NCc3nccs3)[C@@H]12` [RS4, (2Z,4E)-2-Bromo-5-((1′S,2′S,4′aR,6′R,7′S,8′S,8′aS)-7′-hydroxy-2′,6′,8′-trimethyl-1′,2′,4′a,5′,6′,7′,8′,8′a-octahydronaphthalen-1′-yl)-N-(thiazol-2″-ylmethyl)penta-2,4-dienamide], the 50% growth inhibitory concentration (GI50) stood at 0.5 µM in [1]; 0.3 µM in experiment [2]; 0.04 µM in [3]; 0.07 µM in experiment [4]; 0.03 µM in experiment [5]; 0.01 µM in experiment [6]. Besides, the GI50 in experiment [7] was 0.07 µM; in experiment [8] it was 0.04 µM.
As to `C[C@H]1[C@@H]2[C@@H](/C=C/C=C(\Br)C(=O)NCc3cncs3)[C@@H](C)C=C[C@H]2CC[C@@H]1O` [RS6, (2Z,4E)-2-Bromo-5-((1′S,2′S,4′aR,7′S,8′S,8′aS)-7′-hydroxy-2′,8′-dimethyl-1′,2′,4′a,5′,6′,7′,8′,8′a-octahydronaphthalen-1′-yl)-N-(thiazol-5″-ylmethyl)penta-2,4-dienamide], the 50% growth inhibitory concentration (GI50) in experiment [1] came out at 0.1 µM; in experiment [2] it was 0.05 µM; in [3] it was 0.005 µM; in [4], 0.1 µM; in experiment [5], 0.03 µM; in [6] it was 0.003 µM. For the same compound, the 50% growth inhibitory concentration (GI50) was found to be 0.1 µM in experiment [7] and 0.04 µM in [8].
In the case of `C[C@@H]1[C@@H](O)[C@H](C)C[C@@H]2C=C[C@H](C)[C@H](/C=C/C=C(\Br)C(=O)NCc3cncs3)[C@@H]12` [RS2, (2Z,4E)-2-Bromo-5-((1′S,2′S,4′aR,6′R,7′S,8′S,8′aS)-7′-hydroxy-2′,6′,8′-trimethyl-1′,2′,4′a,5′,6′,7′,8′,8′a-octahydronaphthalen-1′-yl)-N-(thiazol-5″-ylmethyl)penta-2,4-dienamide], the “inhibition of cell proliferation (in words)” value (shortened to “inhibition”) in the experiment with HMC-1.2 cells, in the experiment on GIST-R9 cells and with GIST-T1 cells was “in a concentration-dependent manner” each time. Besides, the IC50 with HMC-1.2 cells was 0.037 µM; with GIST-R9 cells, 0.169 µM; in the experiment with GIST-T1 cells it was 0.128 µM. For the same compound, the GI50 in [1] stood at 0.03 µM; in experiment [2], 0.01 µM; in experiment [3], 0.003 µM; in experiment [4], 0.04 µM; in experiment [5], 0.03 µM; in [6], 0.0003 µM. For the same compound, the GI50 was found to be 0.03 µM in experiment [7] and 0.001 µM in [8].
With `C[C@@H]1[C@@H](O)[C@H](C)C[C@@H]2C=C[C@H](C)[C@H](/C=C/C=C(\Br)C(=O)NCc3cnco3)[C@@H]12` [RS1, (2Z,4E)-2-Bromo-5-((1′S,2′S,4′aR,6′R,7′S,8′S,8′aS)-7′-hydroxy-2′,6′,8′-trimethyl-1′,2′,4′a,5′,6′,7′,8′,8′a-octahydronaphthalen-1′-yl)-N-(oxazol-5″-ylmethyl)penta-2,4-dienamide], the “inhibition” value in the experiment with HMC-1.2 cells, in the experiment with GIST-R9 cells and with GIST-T1 cells was “in a concentration-dependent manner” in each case. For the same compound, the results for the IC50 in the experiment with HMC-1.2 cells, with GIST-R9 cells and in the experiment with GIST-T1 cells were 0.05 µM, 0.363 µM and 0.268 µM, respectively. The concentration for 50% growth inhibition (GI50) was 0.03 µM in [1]; 0.04 µM in experiment [2]; 0.005 µM in [3]; 0.01 µM in [4]; 0.003 µM in experiment [5]; 0.001 µM in experiment [6]. Besides, the GI50 in experiment [7] stood at 0.005 µM; in [8] it was 0.003 µM.
Take `C[C@@H]1[C@@H](O)[C@H](C)C[C@@H]2C=C[C@H](C)[C@H](/C=C/C=C(\Br)C(=O)NCc3cocn3)[C@@H]12` [RS3, (2Z,4E)-2-Bromo-5-((1′S,2′S,4′aR,6′R,7′S,8′S,8′aS)-7′-hydroxy-2′,6′,8′-trimethyl-1′,2′,4′a,5′,6′,7′,8′,8′a-octahydronaphthalen-1′-yl)-N-(oxazol-4″-ylmethyl)penta-2,4-dienamide]: the 50% growth inhibitory concentration (GI50) in experiment [1] came to 0.3 µM; in [2], 0.2 µM; in [3], 0.03 µM; in experiment [4], 0.05 µM; in [5], 0.003 µM; in experiment [6], 0.03 µM. Also, the concentration for 50% growth inhibition (GI50) in experiment [7] was determined as 0.08 µM; in [8], 0.03 µM.
On to `C[C@@H]1[C@@H](O)[C@H](C)C[C@@H]2C=C[C@H](C)[C@H](/C=C/C=C(\Br)C(=O)NCc3cccnc3)[C@@H]12` [RS5, (2Z,4E)-2-Bromo-5-((1′S,2′S,4′aR,6′R,7′S,8′S,8′aS)-7′-hydroxy-2′,6′,8′-trimethyl-1′,2′,4′a,5′,6′,7′,8′,8′a-octahydronaphthalen-1′-yl)-N-(pyridin-3″-ylmethyl)penta-2,4-dienamide], for which the “inhibition” value with HMC-1.2 cells, in the experiment on GIST-R9 cells and in the experiment with GIST-T1 cells was “in a concentration-dependent manner” each time. In addition, the concentration for half-maximal inhibition (IC50) turned out to be 0.042 µM in the experiment with HMC-1.2 cells, 0.292 µM in the experiment on GIST-R9 cells and 0.169 µM in the experiment with GIST-T1 cells. Moreover, the 50% growth inhibitory concentration (GI50) in experiment [1] stood at 0.08 µM; in experiment [2], 0.01 µM; in experiment [3], 0.001 µM; in experiment [4], 0.03 µM; in experiment [5], 0.03 µM; in experiment [6], 0.0001 µM. Moreover, the values for the GI50 in experiment [7] and in [8] were 0.05 µM and 0.0003 µM, respectively.
